# Experimental data reported in ChEMBL document CHEMBL1201862, “PubChem BioAssay data set” (2004).
# Active and inactive are the calls of the source.
# Tests used:
# [1] = Luminescence Cell-Based Dose Confirmation HTS to Identify Activators of 5'UTR Stem-Loop Driven Alpha-Synuclein mRNA Translation in H4 Neuroglioblastoma Cells. [Related pubchem assays: 1829 (Project Summary), 1814 (Primary HTS)]; assay type: functional
# [2] = molecular target: Lysosomal acid glucosylceramidase (Homo sapiens, UniProt P04062); assay: Dose response cell-based high throughput screening assay to identify enhancers of beta-glucosidase activity. [Related pubchem assays: 784 ]; assay type: functional
# Chain of Lysosomal acid glucosylceramidase (P04062 whole entry): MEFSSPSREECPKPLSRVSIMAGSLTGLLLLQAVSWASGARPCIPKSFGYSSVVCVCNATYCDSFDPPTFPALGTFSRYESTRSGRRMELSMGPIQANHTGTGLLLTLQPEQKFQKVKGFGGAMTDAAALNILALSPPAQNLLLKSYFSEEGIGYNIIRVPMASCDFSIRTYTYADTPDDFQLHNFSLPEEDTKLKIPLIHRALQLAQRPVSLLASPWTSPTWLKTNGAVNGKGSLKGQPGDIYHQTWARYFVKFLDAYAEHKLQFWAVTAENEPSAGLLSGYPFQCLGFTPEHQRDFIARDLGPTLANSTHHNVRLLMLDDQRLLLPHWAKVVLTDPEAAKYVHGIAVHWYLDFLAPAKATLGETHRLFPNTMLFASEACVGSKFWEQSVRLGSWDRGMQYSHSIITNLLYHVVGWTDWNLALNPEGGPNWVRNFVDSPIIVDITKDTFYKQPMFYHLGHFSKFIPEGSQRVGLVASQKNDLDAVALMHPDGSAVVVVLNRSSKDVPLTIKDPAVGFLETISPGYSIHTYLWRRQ
# [3] = Luminescence Cell-Based Dose Response HTS to Identify Activators of Luciferase Translation or Activity in H4 […] Cells. [Related pubchem assays: 1829 (Project Summary), 1814 (Primary HTS)]; assay type: functional
# H4 = assay: Luminescence Cell-Based Dose Response HTS to Identify Activators of 5'UTR Stem-Loop Driven Prion Protein mRNA Translation in H4 Neuroglioblastoma Cells. [Related pubchem assays: 1829 (Project Summary), 1814 (Primary HTS)]; assay type: functional; settings: Homo sapiens
# Estrogen receptor = molecular target: T1, Estrogen receptor (Homo sapiens, UniProt P03372); assay: blockers of SRC-3 recruitment to ERα – biochemical, ELISA, streptavidin-HRP readout, orthogonal assay, confirmation (AID 1079)
# T1 sequence (P03372 whole entry): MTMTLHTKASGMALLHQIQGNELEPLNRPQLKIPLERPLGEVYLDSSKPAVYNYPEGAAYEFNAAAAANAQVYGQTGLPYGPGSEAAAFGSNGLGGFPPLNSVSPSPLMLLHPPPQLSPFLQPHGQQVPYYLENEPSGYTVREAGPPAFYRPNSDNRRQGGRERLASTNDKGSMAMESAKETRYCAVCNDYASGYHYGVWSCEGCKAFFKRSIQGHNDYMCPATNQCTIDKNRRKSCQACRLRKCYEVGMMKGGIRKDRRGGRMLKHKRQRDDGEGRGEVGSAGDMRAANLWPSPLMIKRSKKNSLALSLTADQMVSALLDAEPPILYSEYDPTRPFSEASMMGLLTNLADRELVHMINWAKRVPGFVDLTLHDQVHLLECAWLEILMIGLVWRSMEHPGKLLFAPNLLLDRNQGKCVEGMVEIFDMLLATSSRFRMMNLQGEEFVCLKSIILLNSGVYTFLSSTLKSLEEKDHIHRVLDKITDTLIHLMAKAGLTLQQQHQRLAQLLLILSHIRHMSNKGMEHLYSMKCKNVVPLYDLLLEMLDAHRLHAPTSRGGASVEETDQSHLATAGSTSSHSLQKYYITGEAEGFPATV
# [4] = molecular target: Peroxisome proliferator-activated receptor gamma (Homo sapiens, UniProt P37231); assay: competitive ligand displacement at PPARg – biochemical, TR-FRET, LanthaScreen, PPARg partial agonist project, dose response (AID 504446)
# Chain of Peroxisome proliferator-activated receptor gamma (P37231 whole entry): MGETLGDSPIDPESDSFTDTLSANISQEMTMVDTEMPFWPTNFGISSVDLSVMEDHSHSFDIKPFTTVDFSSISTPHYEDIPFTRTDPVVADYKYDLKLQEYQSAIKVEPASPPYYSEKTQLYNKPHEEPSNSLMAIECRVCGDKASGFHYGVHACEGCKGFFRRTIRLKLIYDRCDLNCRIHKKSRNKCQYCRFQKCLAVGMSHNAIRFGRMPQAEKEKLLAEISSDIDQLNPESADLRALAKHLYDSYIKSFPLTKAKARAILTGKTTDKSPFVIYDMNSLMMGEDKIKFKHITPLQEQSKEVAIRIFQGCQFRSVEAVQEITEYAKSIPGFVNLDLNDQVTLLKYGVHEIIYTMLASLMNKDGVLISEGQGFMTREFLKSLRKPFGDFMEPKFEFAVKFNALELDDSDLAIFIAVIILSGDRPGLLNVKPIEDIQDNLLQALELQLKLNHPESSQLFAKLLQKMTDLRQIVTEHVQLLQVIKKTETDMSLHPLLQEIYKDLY
# Streptococcus = assay: Luminescence Microorganism-Based Dose Response Follow up to Identify Compounds Cytotoxic to Streptococcus. [Related pubchem assays: 1677 (Project Summary), 1915, 1914, 1902 (Retest at Dose), 1900 (Counter Screen), 1662 (Primary HTS)]; assay type: functional, organism-based
# [5] = Counterscreen for IDE inhibitors: Luminescence-based cell-based high throughput dose response assay to identify compounds that are cytotoxic to HEK cells. [Related pubchem assays: 434962 (Primary screen (IDE inhibitors in singlicate)), 449730 (Counterscreen (Cytotoxicity in triplicate)), 435028 (Confirmation (IDE inhibitors in triplicate)) …; assay type: functional; settings: HEK293
# Insulin-degrading enzyme = molecular target: T2, Insulin-degrading enzyme (Homo sapiens, UniProt P14735); assay: Dose Response: Fluorescence polarization-based cell-based high throughput dose response assay for inhibitors of insulin-degrading enzyme (IDE). [Related pubchem assays: 434962 (Primary screen (IDE inhibitors in singlicate)), 449730 (Counterscreen (Cytotoxicity in triplicate)), 435028 (Confirmation (IDE inhibitors in triplicate)), 434984 (Summary …; assay type: functional
# T2 sequence (P14735 whole entry): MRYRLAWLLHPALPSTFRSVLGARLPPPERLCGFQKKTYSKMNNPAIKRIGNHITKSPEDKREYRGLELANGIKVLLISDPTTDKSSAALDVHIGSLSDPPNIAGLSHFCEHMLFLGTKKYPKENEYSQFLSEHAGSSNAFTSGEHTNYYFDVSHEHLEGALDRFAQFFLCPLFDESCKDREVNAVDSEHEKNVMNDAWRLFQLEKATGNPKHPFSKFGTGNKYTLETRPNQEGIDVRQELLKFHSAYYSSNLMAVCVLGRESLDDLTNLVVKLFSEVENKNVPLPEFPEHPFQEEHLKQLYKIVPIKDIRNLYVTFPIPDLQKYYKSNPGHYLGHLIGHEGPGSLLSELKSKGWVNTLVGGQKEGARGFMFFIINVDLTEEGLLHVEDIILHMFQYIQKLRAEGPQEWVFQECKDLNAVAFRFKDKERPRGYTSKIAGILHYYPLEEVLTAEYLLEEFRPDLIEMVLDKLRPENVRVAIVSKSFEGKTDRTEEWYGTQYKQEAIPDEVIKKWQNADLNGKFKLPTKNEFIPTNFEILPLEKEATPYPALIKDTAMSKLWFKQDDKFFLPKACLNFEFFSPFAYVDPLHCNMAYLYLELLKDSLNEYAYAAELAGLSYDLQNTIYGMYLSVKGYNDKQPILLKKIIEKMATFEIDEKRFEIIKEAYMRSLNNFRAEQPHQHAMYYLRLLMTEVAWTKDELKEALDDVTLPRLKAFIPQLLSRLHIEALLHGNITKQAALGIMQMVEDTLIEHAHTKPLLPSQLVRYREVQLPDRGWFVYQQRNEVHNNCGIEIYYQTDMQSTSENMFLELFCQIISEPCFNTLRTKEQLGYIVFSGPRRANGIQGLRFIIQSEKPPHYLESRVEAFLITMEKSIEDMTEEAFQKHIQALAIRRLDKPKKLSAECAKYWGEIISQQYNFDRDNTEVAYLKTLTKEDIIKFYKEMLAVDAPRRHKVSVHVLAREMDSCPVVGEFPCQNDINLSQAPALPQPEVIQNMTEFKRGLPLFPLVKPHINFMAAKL
# Bcl-2-like protein 10 = Bcl-2-like protein 10 (Homo sapiens, UniProt Q9HD36); assay: Bcl-B/TR3 peptide binding disruption – biochemical, fluorescence polarization, FITC-TR3 peptide, selectivity assay for Bfl-1 inhibitor project, primary screen (AID 748);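 also: fluorescence polarization from a fluorescein-labelled TR3 peptide binding purified Bcl-B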
# Chain of Bcl-2-like protein 10 (Q9HD36 whole entry): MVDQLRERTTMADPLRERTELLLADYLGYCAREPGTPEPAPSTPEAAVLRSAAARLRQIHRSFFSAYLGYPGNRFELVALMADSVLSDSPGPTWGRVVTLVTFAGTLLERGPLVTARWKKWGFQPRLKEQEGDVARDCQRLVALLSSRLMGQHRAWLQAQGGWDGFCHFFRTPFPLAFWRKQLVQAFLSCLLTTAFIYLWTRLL
# Estrogen receptor beta = Estrogen receptor beta (Homo sapiens, UniProt Q92731); assay: blockers of SRC-3 recruitment to ERβ – biochemical, ELISA, streptavidin-HRP readout, orthogonal assay, confirmation (AID 1060)
# Chain of Estrogen receptor beta (Q92731 whole entry): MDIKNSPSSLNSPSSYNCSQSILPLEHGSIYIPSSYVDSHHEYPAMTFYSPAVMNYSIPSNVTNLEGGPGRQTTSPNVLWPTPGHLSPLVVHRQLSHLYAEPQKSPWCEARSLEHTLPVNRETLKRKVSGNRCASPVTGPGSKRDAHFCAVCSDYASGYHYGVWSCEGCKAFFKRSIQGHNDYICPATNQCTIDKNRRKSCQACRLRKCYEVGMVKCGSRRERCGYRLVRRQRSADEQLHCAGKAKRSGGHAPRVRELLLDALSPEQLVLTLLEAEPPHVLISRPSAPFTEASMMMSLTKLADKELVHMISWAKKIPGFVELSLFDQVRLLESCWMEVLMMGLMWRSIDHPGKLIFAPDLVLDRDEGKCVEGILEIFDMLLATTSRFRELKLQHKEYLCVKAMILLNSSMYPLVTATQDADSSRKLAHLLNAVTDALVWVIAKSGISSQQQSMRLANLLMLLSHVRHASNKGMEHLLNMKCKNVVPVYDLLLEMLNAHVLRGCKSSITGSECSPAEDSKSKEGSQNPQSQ
# [6] = molecular target: Induced myeloid leukemia cell differentiation protein Mcl-1 (Homo sapiens, UniProt Q07820); assay type: functional
# Chain of Induced myeloid leukemia cell differentiation protein Mcl-1 (Q07820 whole entry): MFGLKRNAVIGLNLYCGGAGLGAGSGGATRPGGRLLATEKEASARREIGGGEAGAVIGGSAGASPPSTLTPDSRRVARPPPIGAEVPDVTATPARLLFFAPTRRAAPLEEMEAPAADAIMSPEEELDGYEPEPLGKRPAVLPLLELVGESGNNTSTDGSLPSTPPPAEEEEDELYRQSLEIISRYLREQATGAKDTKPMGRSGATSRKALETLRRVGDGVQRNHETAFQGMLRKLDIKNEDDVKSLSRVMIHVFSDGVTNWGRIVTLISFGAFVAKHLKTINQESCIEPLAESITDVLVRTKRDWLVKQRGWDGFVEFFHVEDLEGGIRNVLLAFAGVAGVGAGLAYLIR
# [7] = molecular target: T3, Tyrosine-protein phosphatase non-receptor type 7 (Homo sapiens, UniProt P35236); assay: redox-active compounds inhibiting HePTP phosphatase – biochemical, fluorescence, mechanism study (AID 2068); assay type: functional
# T3 sequence (P35236 whole entry): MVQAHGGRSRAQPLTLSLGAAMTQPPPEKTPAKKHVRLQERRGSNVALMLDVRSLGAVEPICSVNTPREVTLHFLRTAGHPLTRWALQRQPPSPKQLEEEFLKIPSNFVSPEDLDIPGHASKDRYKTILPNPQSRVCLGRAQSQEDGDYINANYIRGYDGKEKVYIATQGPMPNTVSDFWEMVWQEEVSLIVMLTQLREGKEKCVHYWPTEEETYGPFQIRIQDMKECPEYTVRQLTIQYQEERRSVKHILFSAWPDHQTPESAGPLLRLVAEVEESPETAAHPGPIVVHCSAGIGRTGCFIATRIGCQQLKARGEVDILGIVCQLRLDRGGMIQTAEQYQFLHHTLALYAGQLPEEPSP
compound,measurement,setting,value
COC(=O)c1sc(NC(=O)c2csc3c2CCCC3)nc1C,EC50,[1],0.155 µM (active)
same,EC50,[2],> 50 µM (not active)
same,EC50,[3],0.575 µM (active)
same,EC50,H4,1.8 µM (active)
O=C(CCCCCn1c(=S)[nH]c2ccccc2c1=O)N1CCN(c2cccc([N+](=O)[O-])c2)CC1,IC50,Estrogen receptor,0.84 µM (not active)
O=C(O)CCN1C(=O)/C(=C/c2ccc(C(F)(F)F)cc2C(F)(F)F)SC1=S,IC50,[4],2 µM (active)
CN1C(=O)/C(=C\c2cccn2-c2ccc3ccccc3c2)C(=O)NC1=S,EC50,Streptococcus,> 260 µM (not active)
CN(C)c1ccc(/C=C2\SC(N3CCCCC3)=NC2=O)cc1,IC50,[5],23 µM (not active)
same,IC50,Insulin-degrading enzyme,17.9 µM (not active)
O=C(NCc1ccccn1)c1ccc2nc(-c3ccco3)c(-c3ccco3)nc2c1,IC50,Bcl-2-like protein 10,9.92 µM (active)
same,IC50,Estrogen receptor beta,4.9 µM (not active)
same,IC50,[6],2.28 µM (active)
same,IC50,[7],3.99 µM (active)
